Assay results reported in BindingDB's records for patent US20240368161 (Cgenetech (Suzhou, China), 2024).
pIC50: −log10 of the molar value.

What was measured:
[1] = target: Tyrosine-protein kinase JAK1 (Homo sapiens, UniProt P23458); assay: JAK1 Kinase Inhibitory Activity Determination
[2] = target: Tyrosine-protein kinase JAK2 (Homo sapiens, UniProt O60674); assay: JAK2 Kinase Inhibitory Activity Determination
[3] = target: T1, Tyrosine-protein kinase JAK3 (Homo sapiens, UniProt P52333); assay: JAK3 Kinase Inhibitory Activity Determination
T1 sequence (P52333 whole entry): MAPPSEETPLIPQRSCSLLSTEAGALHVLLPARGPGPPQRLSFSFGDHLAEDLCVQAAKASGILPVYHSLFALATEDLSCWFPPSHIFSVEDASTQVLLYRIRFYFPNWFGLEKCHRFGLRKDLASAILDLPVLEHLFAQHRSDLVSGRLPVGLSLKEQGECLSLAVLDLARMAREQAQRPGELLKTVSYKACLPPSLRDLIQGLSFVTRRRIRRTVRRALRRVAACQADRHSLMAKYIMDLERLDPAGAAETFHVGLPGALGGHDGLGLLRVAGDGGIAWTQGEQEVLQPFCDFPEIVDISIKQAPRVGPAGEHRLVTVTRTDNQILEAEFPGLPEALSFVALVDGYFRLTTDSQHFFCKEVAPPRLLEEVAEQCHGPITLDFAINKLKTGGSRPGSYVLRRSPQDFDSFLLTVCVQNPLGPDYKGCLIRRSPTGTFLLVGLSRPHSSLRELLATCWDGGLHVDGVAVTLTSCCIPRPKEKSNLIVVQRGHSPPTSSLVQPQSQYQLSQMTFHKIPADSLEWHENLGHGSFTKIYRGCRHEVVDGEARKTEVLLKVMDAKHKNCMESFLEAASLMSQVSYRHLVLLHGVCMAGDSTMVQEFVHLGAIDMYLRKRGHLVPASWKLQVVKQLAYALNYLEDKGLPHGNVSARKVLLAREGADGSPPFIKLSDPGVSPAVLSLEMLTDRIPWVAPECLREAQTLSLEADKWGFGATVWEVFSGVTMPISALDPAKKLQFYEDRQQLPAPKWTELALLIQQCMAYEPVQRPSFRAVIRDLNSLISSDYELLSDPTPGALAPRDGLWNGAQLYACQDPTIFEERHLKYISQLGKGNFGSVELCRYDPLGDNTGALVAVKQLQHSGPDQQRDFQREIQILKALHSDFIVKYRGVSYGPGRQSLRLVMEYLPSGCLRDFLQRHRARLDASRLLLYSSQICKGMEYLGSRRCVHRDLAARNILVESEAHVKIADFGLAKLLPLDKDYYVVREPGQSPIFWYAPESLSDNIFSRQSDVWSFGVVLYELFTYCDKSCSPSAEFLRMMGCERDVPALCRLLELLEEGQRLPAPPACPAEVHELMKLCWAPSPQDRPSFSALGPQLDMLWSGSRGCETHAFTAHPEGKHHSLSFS
Method: At the end of incubation, HTRF665/620 signals were read on a multifunctional microplate reader.

Chain of Tyrosine-protein kinase JAK1 (P23458 whole entry): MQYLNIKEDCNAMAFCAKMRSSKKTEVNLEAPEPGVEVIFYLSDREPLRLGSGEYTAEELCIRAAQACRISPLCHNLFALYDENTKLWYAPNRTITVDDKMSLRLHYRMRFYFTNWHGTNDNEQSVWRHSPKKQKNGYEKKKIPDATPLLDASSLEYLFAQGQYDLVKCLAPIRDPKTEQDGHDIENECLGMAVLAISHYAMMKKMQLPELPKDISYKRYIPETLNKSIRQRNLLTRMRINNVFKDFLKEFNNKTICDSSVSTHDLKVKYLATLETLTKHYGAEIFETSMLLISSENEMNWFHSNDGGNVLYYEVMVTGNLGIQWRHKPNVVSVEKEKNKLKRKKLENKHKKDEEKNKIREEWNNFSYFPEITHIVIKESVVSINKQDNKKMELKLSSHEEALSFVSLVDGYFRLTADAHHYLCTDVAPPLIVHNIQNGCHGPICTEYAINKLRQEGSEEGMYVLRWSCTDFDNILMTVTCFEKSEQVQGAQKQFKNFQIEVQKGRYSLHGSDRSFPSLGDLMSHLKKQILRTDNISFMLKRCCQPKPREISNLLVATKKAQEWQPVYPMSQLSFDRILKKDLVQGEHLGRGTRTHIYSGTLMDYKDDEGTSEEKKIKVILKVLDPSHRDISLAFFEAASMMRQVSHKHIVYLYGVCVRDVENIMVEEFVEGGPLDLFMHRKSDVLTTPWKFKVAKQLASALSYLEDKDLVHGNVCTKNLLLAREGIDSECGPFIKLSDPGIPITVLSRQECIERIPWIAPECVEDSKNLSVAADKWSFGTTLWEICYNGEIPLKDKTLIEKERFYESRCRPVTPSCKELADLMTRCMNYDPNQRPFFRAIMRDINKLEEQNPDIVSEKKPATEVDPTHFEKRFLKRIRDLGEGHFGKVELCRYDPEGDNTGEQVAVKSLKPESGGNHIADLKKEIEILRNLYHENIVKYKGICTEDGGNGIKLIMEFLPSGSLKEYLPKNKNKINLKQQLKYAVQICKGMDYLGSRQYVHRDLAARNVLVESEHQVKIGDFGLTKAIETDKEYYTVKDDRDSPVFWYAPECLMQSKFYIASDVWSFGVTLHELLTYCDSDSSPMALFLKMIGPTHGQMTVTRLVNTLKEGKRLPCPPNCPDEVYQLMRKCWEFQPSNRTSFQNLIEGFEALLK
Chain of Tyrosine-protein kinase JAK2 (O60674 whole entry): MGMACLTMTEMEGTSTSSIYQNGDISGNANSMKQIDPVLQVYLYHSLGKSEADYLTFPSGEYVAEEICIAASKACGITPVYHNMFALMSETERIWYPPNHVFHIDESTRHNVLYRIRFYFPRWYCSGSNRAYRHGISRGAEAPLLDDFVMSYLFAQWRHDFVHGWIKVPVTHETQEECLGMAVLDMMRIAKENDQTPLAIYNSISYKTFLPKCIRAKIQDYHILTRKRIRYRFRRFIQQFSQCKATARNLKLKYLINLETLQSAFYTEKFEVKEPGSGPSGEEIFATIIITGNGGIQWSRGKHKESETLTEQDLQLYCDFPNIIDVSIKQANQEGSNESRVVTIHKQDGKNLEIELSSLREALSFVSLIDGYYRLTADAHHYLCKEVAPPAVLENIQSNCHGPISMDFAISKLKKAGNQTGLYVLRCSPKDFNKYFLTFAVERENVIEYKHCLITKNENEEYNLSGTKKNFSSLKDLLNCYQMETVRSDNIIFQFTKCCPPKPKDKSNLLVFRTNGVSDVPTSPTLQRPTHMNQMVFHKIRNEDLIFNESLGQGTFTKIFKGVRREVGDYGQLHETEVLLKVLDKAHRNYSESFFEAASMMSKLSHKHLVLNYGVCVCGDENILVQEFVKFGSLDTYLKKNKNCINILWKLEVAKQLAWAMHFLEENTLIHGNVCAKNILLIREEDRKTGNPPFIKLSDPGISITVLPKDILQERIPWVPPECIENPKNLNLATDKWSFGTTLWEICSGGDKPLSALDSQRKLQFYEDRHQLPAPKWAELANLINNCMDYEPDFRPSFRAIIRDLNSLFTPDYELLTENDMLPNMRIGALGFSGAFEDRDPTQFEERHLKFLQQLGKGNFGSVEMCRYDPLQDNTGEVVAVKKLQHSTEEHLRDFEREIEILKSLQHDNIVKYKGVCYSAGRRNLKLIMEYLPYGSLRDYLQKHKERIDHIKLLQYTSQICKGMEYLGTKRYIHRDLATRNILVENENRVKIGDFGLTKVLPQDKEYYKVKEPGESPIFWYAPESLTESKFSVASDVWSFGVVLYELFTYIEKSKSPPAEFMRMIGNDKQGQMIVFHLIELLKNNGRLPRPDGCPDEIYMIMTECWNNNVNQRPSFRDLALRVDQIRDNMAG

Compound | pIC50 [1] | pIC50 [2] | pIC50 [3]
CCCS(=O)(=O)C1CCN(Cc2ccc(-c3cccc4nc(NC(=O)C5CC5)cn34)cc2)CC1 [US20240368161, Compound 31] | 6.21 | 6.64 | 5.16
CS(=O)(=O)C1CCN(Cc2ccc(-c3cccc4nc(NC(=O)C5CC5)cn34)cc2)CC1 [US20240368161, Compound 16] | 7.13 | 6.90 | 5.51
CS(=O)(=O)C1CN(Cc2ccc(-c3cccc4nc(NC(=O)C5CC5)cn34)cc2)C1 [US20240368161, Compound 15] | 6.86 | 6.63 | 5.50
O=C(Nc1cn2c(-c3ccc(OC4CCS(=O)(=O)CC4)cc3)cccc2n1)C1CC1 [US20240368161, Compound 17] | 6.90 | 7.14 | 5.84
CS(=O)(=O)C1CCN(Cc2ccc(-c3cccc4nc(NC(=O)C5CC5)cn34)c(F)c2)CC1 [US20240368161, Compound 20] | 6.58 | 6.75 | 5.24
